Patent US5047397A, “Linear analogs of atrial natriuretic peptides” (California Biotechnology Inc., priority 1988, dated 1991)
*1 amine or outer side, *2 acyl side, *3 side chain or, on linkers, in order; H or OH if unused. Where a SMILES comes first, the peptide text is derived from it. Bridges are numbered along the chain shown (N, C = ends). [ ]: non-standard residue; d: D form. The star is where a group is joined. Acetyl(2-naphthyloxy) = O=C(COc1ccc2ccccc2c1)*; Acetyl(2-naphthyl) = O=C(Cc1ccc2ccccc2c1)*; NMeI = CC[C@H](C)[C@H](NC)C(=O)O; X1 = O=C(Cc1ccc(N[*:1])cc1)[*:2]; Tle = CC(C)(C)[C@H](N)C(=O)O; Inp = O=C(O)C1CCNCC1; X3 = CCC(C)CN*

Molecular target: T1, specific ANP receptor sites on BASM or BAE cells (Bos taurus, UniProt P10730)
T1 construct: specific receptor sites on BASM or BAE cells; endogenous in cells; host or cells: cultured BASM and BAE cells
T1 sequence (P10730 42-537): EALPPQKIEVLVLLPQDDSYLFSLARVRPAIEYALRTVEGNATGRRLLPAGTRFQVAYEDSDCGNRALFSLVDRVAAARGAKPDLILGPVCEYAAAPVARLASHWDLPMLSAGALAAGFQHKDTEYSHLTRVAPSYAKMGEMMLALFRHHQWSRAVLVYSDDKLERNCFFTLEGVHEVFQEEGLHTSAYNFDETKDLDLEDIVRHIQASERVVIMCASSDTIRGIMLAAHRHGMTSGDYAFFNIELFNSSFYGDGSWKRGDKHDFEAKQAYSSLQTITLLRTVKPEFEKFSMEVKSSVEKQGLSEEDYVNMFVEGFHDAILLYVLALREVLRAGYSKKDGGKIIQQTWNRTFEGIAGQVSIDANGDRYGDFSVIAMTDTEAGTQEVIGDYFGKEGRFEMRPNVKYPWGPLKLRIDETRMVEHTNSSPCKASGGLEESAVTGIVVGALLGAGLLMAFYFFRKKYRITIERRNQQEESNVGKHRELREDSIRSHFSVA
Experiment: Competitive displacement receptor binding of (125I)-rANP(126-150) on cultured cells
Design: species or system bovine
Conditions: concentration of unlabeled peptide displacing 50% of maximal binding of 0.5 nM (125I)-rANP(126-150); BASM or BAE cells
Source text: Analogous "competitive displacement" receptor binding assays are considered commonplace in the art for examining specific ligand-receptor interactions.
Assuming these ANP analogs act at one or more ANP receptor sites, then increased receptor affinity should reflect increased biological potency.

Structure (SMILES) | Ki(app)
CC[C@H](C)[C@@H]1NC(=O)[C@H](CCCNC(=N)N)NC(=O)[C@H](CC(=O)O)NC(=O)[C@H]([C@@H](C)CC)NC(=O)[C@H](CCCNC(=N)N)NC(=O)CNC(=O)[C@@H](NC(=O)[C@H](CO)NC(=O)[C@H](CO)NC(=O)[C@@H](N)CCCNC(=N)N)CSSC[C@@H](C(=O)N[C@@H](CC(N)=O)C(=O)N[C@@H](CO)C(=O)N[C@@H](Cc2ccccc2)C(=O)N[C@@H](CCCNC(=N)N)C(=O)N[C@@H](Cc2ccc(O)cc2)C(=O)O)NC(=O)CNC(=O)[C@H](CC(C)C)NC(=O)CNC(=O)[C@H](CO)NC(=O)[C@H](CCC(N)=O)NC(=O)[C@H](C)NC(=O)CNC1=O [AP24, R--S--S--C--G--R--I--D--R--I--G--A--Q--S--G--L--G--C--N--S--F--R--Y] (H-RSSCGRIDRIGAQSGLGCNSFRY-OH; disulfide 4-18) | 0.0252 µM
CC[C@H](C)[C@H](NC(=O)[C@H](CCCNC(=N)N)NC(=O)CNC(=O)CNC(=O)Cc1ccc2ccccc2c1)C(=O)N[C@@H](CC(=O)O)C(=O)N[C@@H](CCCNC(=N)N)C(=O)N[C@H](CC(C)C)C(N)=O [AP536, (2-NA)--G--G--R--I--D--R--L^ --NH2)] ({Acetyl(2-naphthyl)}-GGRIDR[dL]-NH2) | 0.1064 µM
CC[C@H](C)[C@H](NC(=O)[C@H](CCCNC(=N)N)NC(=O)[C@H](CC(=O)O)NC(=O)[C@@H](NC(=O)[C@H](CCCNC(=N)N)NC(=O)CNC(=O)CNC(=O)Cc1ccc2ccccc2c1)C(C)(C)C)C(N)=O [AP591, (2-NA)--G--G--R--tBuG--D--R--I--NH2] ({Acetyl(2-naphthyl)}-GGR[Tle]DRI-NH2) | 0.014 µM
CC[C@H](C)[C@H](NC(=O)[C@H](CCCNC(=N)N)NC(=O)[C@H](CC(=O)O)NC(=O)[C@@H](NC(=O)[C@H](CCCNC(=N)N)NC(=O)CNC(=O)CNC(=O)COc1ccc2ccccc2c1)[C@@H](C)CC)C(N)=O [AP319, (2-NOA)--G--G--R--I--D--R--I--NH2] ({Acetyl(2-naphthyloxy)}-GGRIDRI-NH2) | 0.006 µM
CCNC(=O)[C@H]([C@@H](C)CC)N(C)C(=O)[C@H](CCCNC(=N)N)NC(=O)[C@H](CC(=O)O)NC(=O)[C@@H](NC(=O)[C@H](CCCNC(=N)N)NC(=O)CNC(=O)CNC(=O)Cc1ccc2ccccc2c1)[C@@H](C)CC [AP596, (2-NA)--G--G--R--I--D--R--NMeIle--NH(ethyl)] ({Acetyl(2-naphthyl)}-GGRIDR[NMeI]-NHEt) | 0.0873 µM
CC[C@H](C)[C@H](NC(=O)[C@H](CCCNC(=N)N)NC(=O)[C@H](CC(=O)O)NC(=O)[C@@H](NC(=O)[C@H](CCCNC(=N)N)NC(=O)Cc1ccc(NC(=O)COc2ccc3ccccc3c2)cc1)[C@@H](C)CC)C(N)=O [AP792] ({Acetyl(2-naphthyloxy)}-[X1]RIDRI-NH2) | 0.0063 µM
CCC(C)CNC(=O)[C@H](CCCNC(=N)N)NC(=O)[C@H](CC(=O)O)NC(=O)[C@@H](NC(=O)[C@H](CCCNC(=N)N)NC(=O)C1CCN(C(=O)Cc2ccc3ccccc3c2)CC1)[C@@H](C)CC (stereo partly shown) [AP557] ({Acetyl(2-naphthyl)-Inp}-RIDR-X3) | 0.0417 µM
